These results are taken from patent publication US10005767B2, “Compositions and methods for inhibition of the JAK pathway” (Rigel Pharmaceuticals, Inc., priority 2009, dated 2018).

This experiment relates to human primary T-cells, IL-2 stimulated proliferation (JAK-1 and JAK-3 dependent; reported as JAK3 activity). Briefly: Human primary T-cell proliferation stimulated by IL-2 (Example 3). In kind it is cell-based. The note with it: tested under conditions described in Example 3 (IL-2 stimulated human primary T-cell proliferation), read-out: ability to inhibit JAK3 activity, IC50 range (Table V). The essentials:
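Peripheral-blood human T-cells pre-activated via TCR/CD28, IL-2-starved overnight, then cultured 72 h at 37 °C with compound in Yssel's medium containing IL-2 (80 U/mL in cell suspension). Proliferation read as viable-cell ATP by CellTiter-Glo luminescence; reduction versus control taken as JAK pathway inhibition.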

Structures can show the parent of a compound that is named as a salt. Where two headings read alike, the source gives them in different places.

As to `CCN1CCN(c2ncc(Nc3ncc(C)c(Nc4ccc5oc(=O)[nH]c5c4)n3)cc2F)CC1` [II-114, N4-(benzo[d]oxazolin-2(3H)-one-5-yl)-N2-[2-(4-ethylpiperazin-1-yl)-3-fluoropyridine-5-yl]-5-methyl-2,4-pyrimidinediamine], the IC50 (Homo sapiens, T-cell) is less than 0.5 µM.

Regarding `Cc1cnc(Nc2ccc3c(c2)[nH]c(=O)n3C)nc1Nc1ccc2oc(=O)[nH]c2c1` [IV-28, 5-(5-methyl-2-(1-methyl-2-oxo-2,3-dihydro-1H-benzo[d]imidazol-5-ylamino)pyrimidin-4-ylamino)benzo[d]oxazol-2(3H)-one], the IC50 (Homo sapiens, T-cell) is less than 0.5 µM.

For `CCNC(=O)Nc1ccc(Nc2ncc(C)c(Nc3ccc4oc(=O)[nH]c4c3)n2)cc1` [Compound I-318, N2-[4-(ethylaminocarbonylamino)]phenyl-5-methyl-N4-(2-oxo-2,3-dihydro-1,3-benzoxazol-5-yl)-2,4-pyrimidinediamine], the IC50 was less than 0.5 µM.

Consider `COc1ccc(Nc2ncc(C)c(Nc3ccc4oc(=O)[nH]c4c3)n2)cc1C(=O)N1CCCC1` [Compound I-261, 5-(2-(4-methoxy-3-(pyrrolidine-1-carbonyl)phenylamino)-5-methylpyrimidin-4-ylamino)benzo[d]oxazol-2(3H)-one], for which, where the note is “Homo sapiens, T-cell”, the IC50 is less than 0.5 µM.

With `Cc1cnc(Nc2cc(F)cc(OC(C)(C)C(N)=O)c2)nc1Nc1ccc2oc(=O)[nH]c2c1` [Compound I-402, N2-[3-(1-aminocarbonyl-1-methyl)ethoxy-5-fluoro]phenyl-5-methyl-N4-(2-oxo-2,3-dihydro-1,3-benzoxazol-5-yl)-2,4-pyrimidinediamine], the IC50 is less than 0.5 µM.

For the molecule `Cc1cnc(Nc2ccc(N3CCC(N4CCOCC4)C3)nc2)nc1Nc1ccc2oc(=O)[nH]c2c1` (stereo not shown) [II-84, 5-(5-methyl-2-(6-(3-morpholinopyrrolidin-1-yl)pyridin-3-ylamino)pyrimidin-4-ylamino)benzo[d]oxazol-2(3H)-one], for the setting “Homo sapiens, T-cell”, the concentration for half-maximal inhibition (IC50) is less than 0.5 µM.

Take `Cc1cnc(Nc2ccc(N3CCC4CCC3N4C)cc2)nc1Nc1ccc2oc(=O)[nH]c2c1` (stereo not shown) [Compound I-123, N4-(benzo[d]oxazol-2(3H)-on-5-yl)-N2-(4-(8-methyl-2,8-diazabicyclo[3.2.1]octan-2-yl)phenyl)-5-methylpyrimidine-2,4-diamine]: the concentration for half-maximal inhibition (IC50) (Homo sapiens, T-cell) is less than 0.5 µM.

Regarding `Cc1ccc(Nc2ncc(F)c(Nc3ccc4oc(=O)[nH]c4c3)n2)cc1NS(C)(=O)=O` [Compound I-84, N2-((3-methylsulfonylamino-4-methyl)phenyl)-N4-(2-oxo-2,3-dihydrobenzo[d]oxazol-5-yl)-5-fluoropyrimidine-2,4-diamine], the IC50 was less than 0.5 µM.

Turning to `Cc1cnc(Nc2cccc(Cl)c2)nc1Nc1ccc2oc(=O)[nH]c2c1` [Compound I-173, 5-[2-(3-Chloro-phenylamino)-5-methyl-pyrimidin-4-ylamino]-3H-benzooxazol-2-one], under “Homo sapiens, T-cell”, the half-maximal inhibitory concentration (IC50) is less than 0.5 µM.

In the case of `Cc1cnc(Nc2ccc(N3CCC[C@H](N(C)C(=O)OC(C)(C)C)C3)nc2)nc1Nc1ccc2oc(=O)[nH]c2c1` [II-87, (S)-tert-butyl methyl(1-(5-(5-methyl-4-(2-oxo-2,3-dihydrobenzo[d]oxazol-5-ylamino)pyrimidin-2-ylamino)pyridin-2-yl)piperidin-3-yl)carbamate], the IC50 (Homo sapiens, T-cell) was less than 0.5 µM.

For `Cc1cnc(Nc2ccc3oc(=O)[nH]c3c2)nc1Nc1ccc2oc(=O)[nH]c2c1` [IV-22, 5,5′-(5-methylpyrimidine-2,4-diyl)bis(azanediyl)dibenzo[d]oxazol-2(3H)-one], the IC50 (Homo sapiens, T-cell) is less than 0.5 µM.

On to `Cc1cnc(Nc2ccc3c(c2)CN(C(=O)OC(C)(C)C)C3)nc1Nc1ccc2oc(=O)[nH]c2c1` [III-3, N4-(benzo[d]oxazol-2(3H)-on-5-yl)-N2-(2-tert-butoxoxycarbonylisoindolin-5-yl)-5-methylpyrimidine-2,4-diamine], for which the IC50 was less than 0.5 µM.

For `C=C1C[C@@H](O)CN1c1ccc(Nc2ncc(C)c(Nc3ccc4oc(=O)[nH]c4c3)n2)cn1` [II-126, N2-[2-(4R-hydroxy-2-methylidene-pyrrolidin-1-yl)pyridin-5-yl]-5-methyl-N4-(2-oxo-2,3-dihydro-1,3-benzoxazol-5-yl)-2,4-pyrimidinediamine], the IC50 (Homo sapiens, T-cell) was in the range of 0.5 to 5 µM.

As to `Cc1cnc(Nc2cccc(NS(C)(=O)=O)c2)nc1Nc1ccc2oc(=O)[nH]c2c1` [Compound I-55, N4-(benzo[d]oxazol-2(3H)-on-5-yl)-N2-(3-methylsulfonylamino)phenyl)-5-methylpyrimidine-2,4-diamine formate salt], the IC50 is less than 0.5 µM.

Take `Cc1cnc(Nc2ccc(Cl)c(F)c2)nc1Nc1ccc2oc(=O)[nH]c2c1` [Compound I-400, N2-(4-chloro-3-fluoro)phenyl-5-methyl-N4-(2-oxo-2,3-dihydro-1,3-benzoxazol-5-yl)-2,4-pyrimidinediamine]: the IC50 was less than 0.5 µM.

Consider `Cc1cnc(Nc2cnc(N3CCN(C)CC3)c(C)c2)nc1Nc1ccc2oc(=O)[nH]c2c1` [II-26, N4-(benzoxazolin-2-on-5-yl)-N2-[3-methyl-2-(4-methylpiperazin-1-yl)pyridin-5-yl]-5-methylpyrimidine-2,4-diamine], for which, for the setting “Homo sapiens, T-cell”, the IC50 is less than 0.5 µM.

On to `COc1cc(Nc2ncc(C)c(Nc3ccc4oc(=O)[nH]c4c3)n2)ccc1C(F)(F)F` [Compound I-354, N2-(3-methoxy-4-trifluoromethyl)phenyl-5-methyl-N4-(2-oxo-2,3-dihydro-1,3-benzoxazol-5-yl)-2,4-pyrimidinediamine], for which the IC50 is less than 0.5 µM.

Take `Cc1cnc(Nc2cc(C)c(F)c(C)c2)nc1Nc1ccc2oc(=O)[nH]c2c1` [Compound I-374, N2-(3,5-dimethyl-4-fluoro)phenyl-5-methyl-N4-(2-oxo-2,3-dihydro-1,3-benzoxazol-5-yl)-2,4-pyrimidinediamine]: the IC50 is less than 0.5 µM.

With `Cc1cnc(Nc2ccc3c(c2)OC(C)(C)O3)nc1Nc1ccc2oc(=O)[nH]c2c1` [IV-17, 5-[2-(2,2-Dimethyl-benzo[1,3]dioxol-5-ylamino)-5-methyl-pyrimidin-4-ylamino]-3H-benzooxazol-2-one], the IC50 (Homo sapiens, T-cell) is less than 0.5 µM.

Consider `Cc1cnc(Nc2ccc(NS(C)(=O)=O)cc2)nc1Nc1ccc2oc(=O)n(C(C)C)c2c1` [Compound I-10, N4-(3-isopropylbenzo[d]oxazol-2(3H)-on-5-yl)-N2-((4-methylsulfonylamino)phenyl)-5-methylpyrimidine-2,4-diamine], for which the IC50 was less than 0.5 µM.

Turning to `Cc1cnc(Nc2cnc(N3CCN4CCC[C@H]4C3)c(C(F)(F)F)c2)nc1Nc1ccc2oc(=O)[nH]c2c1` [II-124, N2-[2-(S-1,4-diazabicylco[4.3.0]nonan-4-yl)-3-trifluoromethylpyridin-5-yl]-5-methyl-N4-(2-oxo-2,3-dihydro-1,3-benzoxazol-5-yl)-2,4-pyrimidinediamine], the IC50 was less than 0.5 µM.

Take `COc1cc(Nc2ncc(C)c(Nc3cc(C)c4oc(=O)[nH]c4c3)n2)cc(C(F)(F)F)c1` [Compound I-427, 5-(2-(3-methoxy-5-(trifluoromethyl)phenylamino)-5-methylpyrimidin-4-ylamino)-7-methylbenzo[d]oxazol-2(3H)-one]: for the setting “Homo sapiens, T-cell”, the IC50 was more than 10 µM.

As for `Cc1cnc(Nc2cc(OC(C)C)cc(C(F)(F)F)c2)nc1Nc1ccc2oc(=O)[nH]c2c1` [Compound I-372, N2-(3-isopropoxy-5-trifluoromethyl)phenyl-5-methyl-N4-(2-oxo-2,3-dihydro-1,3-benzoxazol-5-yl)-2,4-pyrimidinediamine], the IC50 was less than 0.5 µM.

Turning to `Cc1cnc(Nc2ccc(N(C)S(C)(=O)=O)cc2)nc1Nc1ccc2oc(=O)n(C)c2c1` [Compound I-94, N2-((4-methylsulfonyl-N-methylamino)phenyl)-N4-(3-methyl-2-oxo-2,3-dihydrobenzo[d]oxazol-5-yl)-5-methylpyrimidine-2,4-diamine], the IC50 was less than 0.5 µM.

On to `Cc1cnc(Nc2ccc(OC(F)(F)F)c(Cl)c2)nc1Nc1ccc2oc(=O)[nH]c2c1` [Compound I-366, N2-(3-chloro-4-trifluoromethoxy)phenyl-5-methyl-N4-(2-oxo-2,3-dihydro-1,3-benzoxazol-5-yl)-2,4-pyrimidinediamine], for which the IC50 was less than 0.5 µM.

For `COCCOc1ccc(Nc2ncc(C)c(Nc3ccc4oc(=O)[nH]c4c3)n2)cc1C(F)(F)F` [Compound I-165, 5-{2-[4-(2-Methoxy-ethoxy)-3-trifluoromethyl-phenylamino]-5-methyl-pyrimidin-4-ylamino}-3H-benzooxazol-2-one], the IC50 (Homo sapiens, T-cell) is less than 0.5 µM.

In the case of `Cc1cnc(Nc2cnc(N3CC4CNCC4C3)c(F)c2)nc1Nc1ccc2oc(=O)[nH]c2c1` (stereo not shown) [II-50, 5-{2-[5-Fluoro-6-(hexahydro-pyrrolo[3,4-c]pyrrol-2-yl)-pyridin-3-ylamino]-5-methyl-pyrimidin-4-ylamino}-3H-benzooxazol-2-one], the IC50 (Homo sapiens, T-cell) was less than 0.5 µM.

Consider `Cc1cnc(Nc2cccc(OCC(=O)N3CCOCC3)c2)nc1Nc1ccc2oc(=O)[nH]c2c1` [Compound I-320, 5-methyl-N2-[3-(morpholinocarbonylmethoxy)]phenyl-N4-(2-oxo-2,3-dihydro-1,3-benzoxazol-5-yl)-2,4-pyrimidinediamine], for which the IC50 is less than 0.5 µM.

For `Cc1cnc(Nc2cc(F)cc(N3CCN(C)CC3)c2)nc1Nc1ccc2oc(=O)[nH]c2c1` [Compound I-241, 5-(2-(3-fluoro-5-(4-methylpiperazin-1-yl)phenylamino)-5-methylpyrimidin-4-ylamino)benzo[d]oxazol-2(3H)-one], under “Homo sapiens, T-cell”, the IC50 was less than 0.5 µM.

In the case of `Cc1cnc(Nc2ccc(N3CCN(C)CC3)nc2)nc1Nc1ccc2oc(=O)n(C)c2c1` [II-22, N2-(6-(4-methylpiperazin-1-yl)pyridin-3-yl)-N4-(3-methyl-2-oxo-2,3-dihydrobenzo[d]oxazol-5-yl)-5-methylpyrimidine-2,4-diamine], the IC50 (Homo sapiens, T-cell) was less than 0.5 µM.

For `Cc1cnc(Nc2cccc(C(N)=O)c2)nc1Nc1ccc2oc(=O)[nH]c2c1` [Compound I-2, N4-(benzo[d]oxazol-2(3H)-on-5-yl)-N2-(3-aminocarbonylphenyl)-5-methylpyrimidine-2,4-diamine], for the setting “Homo sapiens, T-cell”, the IC50 was less than 0.5 µM.
